Data published in patent US20230346281A1, “Fully Printed Electrode Biological Interface” (Early Charm Ventures, priority 2022, published 2023).

System: HepG2 hepatocytes tissue layers
Experiment: Live cell viability / CEIS recordings in the presence of a cytotoxic agent (EtOH)
Assay type: cell-based, human
Settings: 12 hour exposure to EtOH (70% final); HEPG2 2 million cells/mL with PEG-PLL (1:10) hydrogel
Method: A toxicological agent, Ethanol (EtOH) was used as a clinically relevant cytotoxic agent for the HepG2 hepatocytes tissue layers, HEPG2 (2 million cells/mL) with PEG-PLL (1:10) hydrogel. CEIS recordings were obtained at 1 hour and 24 hours post deposition with and without the cytoxic agent, Table 3. A final CEIS recording was obtained from these cells following a 12 hour exposure to EtOH (70% final). A marked increase in amplitude with additional recovery time post deposition (1 vs 24 hours).

SMILES: CCO [EtOH, Ethanol]
- amplitude of CEIS recordings: increased the observed amplitude of CEIS recordings
